Data on eleven molecules can be found in paper PMC9508196 (Scientific Reports, 2022).

In brackets after ≈: the same amount, converted by molar mass. No end group written: not given here.

Assay [1] concerns A. baumannii ATCC 19,606. Kind of assay: microbe, parasite or virus in culture. It is filed as cell-based, Acinetobacter baumannii. From the text: (§1) Ten strains of both Gram-positive and -negative bacteria, including Staphylococcus aureus ATCC 25,923, S. epidermidis ATCC 12,228, Bacillus cereus ATCC 11,778, Listeria monocytogenes 10403S, Salmonella typhimurium ATCC 13,311, Pseudomonas aeruginosa ATCC 27,853, Shigella sonnei ATCC 11,060, A. baumannii ATCC 19,606, Escherichia coli ATCC 25,922 and E. coli O157:H7, were used in this study. Eight clinical isolates of multidrug-resistant (MDR) and extensively drug-resistant (XDR) A. baumannii, isolated from human (blood, sputum, respiratory sample, sterile site sample and urine), were kindly provided by Asst. Prof. Dr. Sakawrat Kanthawong (Faculty of Medicine, Khon Kaen University, Thailand) (Table S1). All bacterial strains, excluding L. monocytogenes 10403S and E. coli, were cultured in tryptic soy broth (TSB). L. monocytogenes was grown in TSB supplemented with 0.6% yeast extract (TSB-YE), and E. coli was cultured in Luria broth (LB). All of bacteria were cultured at 37 °C with continuous shaking at 220 rpm.
(§2) Minimum inhibitory concentration (MIC) of peptides and antibiotics was assessed by a modified version of the broth microdilution method from the Clinical and Laboratory Standards Institute (CLSI) as previously described. In brief, mid-log phase growths of microbial strains were cultured in Müeller-Hinton broth (MHB) with an initial inoculum of 2–8 × 10^5 CFU/mL. Bacteria suspensions were incubated in sterile 96-well plates with test agents at desired concentrations. […] Minimum bactericidal concentration (MBC) determination was performed using a modified version of the colony count assay. In brief, fifty µl of all non-turbid wells from MIC experiments were spread on agar plates. The MBC value was defined as the lowest concentration of peptides with no colony growth on the plate. All assays were performed in triplicate.

Assay [2] deals with Salmonella Typhimurium ATCC 13,311. It is filed as cell-based. To be noted: S. Typhimurium ATCC 13,311; broth microdilution, MHB, 24 h, 37 °C, triplicate.
Text: as §1, §2
In general terms: Broth dilution looks for growth in wells or tubes with falling amounts of substance.

Assay [3] deals with Staphylococcus epidermidis ATCC 12,228. It is filed as cell-based. To be noted: S. epidermidis ATCC 12,228; broth microdilution, MHB, 24 h, 37 °C, triplicate.
Text: as §1, §2

The subject of assay [4] is Staphylococcus aureus ATCC 25,923. It is filed as cell-based. To be noted: S. aureus ATCC 25,923; broth microdilution, MHB, 24 h, 37 °C, triplicate.
Text: as §1, §2

In assay [5] the test system is Shigella sonnei ATCC 11,060. It is filed as cell-based. To be noted: S. sonnei ATCC 11,060; broth microdilution, MHB, 24 h, 37 °C, triplicate.
Text: as §1, §2

For assay [6], the system named is Listeria monocytogenes 10403S. The assay is classed as cell-based. The following applies: L. monocytogenes 10403S; broth microdilution, MHB, 24 h, 37 °C, triplicate.
Text: as §1, §2

Assay [7] has as its system Escherichia coli ATCC 25,922. It is filed as cell-based. The following applies: E. coli ATCC 25,922; broth microdilution, MHB, 24 h, 37 °C, triplicate.
Text: as §1, §2

The test system of assay [8] is Pseudomonas aeruginosa ATCC 27,853. It is filed as cell-based. The following applies: P. aeruginosa ATCC 27,853; broth microdilution, MHB, 24 h, 37 °C, triplicate.
Text: as §1, §2

Assay [9] relates to Escherichia coli O157:H7 MT strain. The assay is classed as cell-based. The following applies: E. coli O157:H7 MT strain; broth microdilution, MHB, 24 h, 37 °C, triplicate.
Text: as §1, §2

Assay [10] relates to Bacillus cereus ATCC 11,778. The assay is classed as cell-based. The following applies: B. cereus ATCC 11,778; broth microdilution, MHB, 24 h, 37 °C, triplicate.
Text: as §1, §2

Assay [11] deals with A. baumannii B-8.1–1 (MDR). Briefly: microbe, parasite or virus in culture. The assay is classed as cell-based, Acinetobacter baumannii. To be noted: Acinetobacter baumannii.
Text: as §1, §2

Assay [12] relates to A. baumannii C-8.2–1 (XDR). Briefly: microbe, parasite or virus in culture. The assay is classed as cell-based, Acinetobacter baumannii. To be noted: Acinetobacter baumannii.
Text: as §1, §2

Assay [13] relates to A. baumannii A-8.2–1 (XDR). Kind of assay: microbe, parasite or virus in culture. It is filed as cell-based, Acinetobacter baumannii. The following applies: Acinetobacter baumannii.
Text: as §1, §2

Assay [14] deals with A. baumannii C-8.1–2 (MDR). Kind of assay: microbe, parasite or virus in culture. The assay is classed as cell-based, Acinetobacter baumannii. To be noted: Acinetobacter baumannii.
Text: as §1, §2

Assay [15] relates to A. baumannii B-8.1–2 (MDR). Briefly: microbe, parasite or virus in culture. The assay is classed as cell-based, Acinetobacter baumannii. The following applies: Acinetobacter baumannii.
Text: as §1, §2

Assay [16] has as its system A. baumannii B-8.2–2 (XDR). Kind of assay: microbe, parasite or virus in culture. The assay is classed as cell-based, Acinetobacter baumannii. To be noted: Acinetobacter baumannii.
Text: as §1, §2

For assay [17], the system named is A. baumannii isolate D-10.1-2. Briefly: Disk diffusion test (CLSI), antibiotic susceptibility profile. It is filed as cell-based, Acinetobacter baumannii. To be noted: CLSI breakpoints. How it is done:
(§3) ^aAntibiotic susceptibility profile of all isolated strains was evaluated by disk diffusion test, using the standard protocol guide of the Clinical and Laboratory Standards Institute (CLSI), and interpreted as S: Susceptible to standard dosing regimen; I: Intermediate; R: Resistant (in accordance with the criteria of CLST breakpoints).

Assay [18] relates to A. baumannii isolate B-8.1-2. The assay is described as above. The assay is classed as cell-based, Acinetobacter baumannii. The following applies: CLSI breakpoints. How it is done:
as §3

The test system of assay [19] is A. baumannii isolate A-8.2-1. Described as above. It is filed as cell-based, Acinetobacter baumannii. The following applies: CLSI breakpoints. How it is done:
as §3

In assay [20] the test system is A. baumannii isolate D-10.1-1. The assay is described as above. The following applies: CLSI breakpoints. It is filed as cell-based, Acinetobacter baumannii. How it is done:
as §3

Assay [21] concerns A. baumannii isolate B-8.2-2. The assay is described as above. To be noted: CLSI breakpoints. It is filed as cell-based, Acinetobacter baumannii. How it is done: as §3
The test system of assay [22] is A. baumannii isolate B-8.1-1. The description is as above. The following applies: CLSI breakpoints. The assay is classed as cell-based, Acinetobacter baumannii. On the procedure: as §3
Assay [23] has as its system A. baumannii isolate C-8.1-2. Described as above. To be noted: CLSI breakpoints. It is filed as cell-based, Acinetobacter baumannii. How it is done: as §3
Assay [24] relates to A. baumannii isolate C-8.2-1. Described as above. The assay is classed as cell-based, Acinetobacter baumannii. To be noted: CLSI breakpoints. How it is done: as §3
Where [25] appears, read: A. baumannii ATCC 19,606, broth microdilution (modified CLSI), MHB, 2–8 × 10^5 CFU/mL, 24 h, 37 °C, triplicate.

In the case of RLFRRVKKVAGKIAKRI-NH2 [AP17], the MIC in assay [1] (setting [25]) was determined as 31.25 µg/mL; in assay [2], 7.81 µg/mL; in assay [3], 7.81 µg/mL; in [4], 62.5 µg/mL; in assay [5], 7.81 µg/mL; in assay [6], 7.81 µg/mL. For the same molecule, the MIC in assay [7] was determined as 15.63 µg/mL; in [8], 15.63 µg/mL; in assay [9], 125 µg/mL; in assay [10], 62.5 µg/mL.
On to RLFRRVKKVAGKIAKR-NH2 [AP16], for which the MIC in [1] (setting [25]) came out at 62.5 µg/mL; in [2], 15.63 µg/mL; in assay [3], 7.81 µg/mL; in assay [4], 125 µg/mL; in assay [5] it was 15.63 µg/mL; in [6] it was 15.63 µg/mL. Further, the MIC in assay [7] was determined as 31.25 µg/mL; in [8], 62.5 µg/mL; in assay [9], 125 µg/mL; in [10] it was 250 µg/mL.
For RLFRRVKKVAGKIA-NH2 [AP14], the MIC in [1] (setting [25]) is > 250 µg/mL; in [2], 62.5 µg/mL; in assay [3], 31.25 µg/mL; in [4], > 250 µg/mL; in [5], 125 µg/mL; in assay [6], 62.5 µg/mL. Besides, the MIC in assay [7] is 125 µg/mL; in assay [8], 250 µg/mL; in [9] it was 250 µg/mL; in assay [10], > 250 µg/mL.
In the case of RLFRRVKKVAGKIAK-NH2 [AP15], the MIC in assay [1] (setting [25]) turned out to be 62.5 µg/mL; in [2], 31.25 µg/mL; in assay [3], 15.63 µg/mL; in assay [4], 250 µg/mL; in assay [5], 62.5 µg/mL; in assay [6] it was 31.25 µg/mL. The MIC in assay [7] was 31.25 µg/mL; in [8] it was 125 µg/mL; in assay [9] it was 62.5 µg/mL; in assay [10], > 250 µg/mL.
`CN(C)c1ccc(O)c2c1C[C@H]1C[C@H]3[C@H](N(C)C)C(O)=C(C(N)=O)C(=O)[C@@]3(O)C(O)=C1C2=O` [Minocycline]: the MBC in assay [1] (Acinetobacter baumannii, ATCC19) stood at 1.95 µg/mL (≈ 4.26 µM); in [11] it was 7.81 µg/mL (≈ 17.1 µM); in assay [12], 31.2 µg/mL (≈ 68.3 µM); in assay [13], 31.2 µg/mL (≈ 68.3 µM); in assay [14] it was 31.2 µg/mL (≈ 68.3 µM); in assay [15] it was 15.6 µg/mL (≈ 34.2 µM). Moreover, in assay [16], the MBC was determined as 31.2 µg/mL (≈ 68.3 µM). Also, the MIC in assay [1] (Acinetobacter baumannii, ATCC19, 24 h) is ≤ 0.49 µg/mL; in [11] it was ≤ 0.49 µg/mL; in [12], 1.95 µg/mL (≈ 4.26 µM); in assay [13], 0.98 µg/mL (≈ 2.14 µM); in assay [14], 3.91 µg/mL (≈ 8.55 µM); in assay [15], 0.98 µg/mL (≈ 2.14 µM). In assay [16], the MIC was 3.91 µg/mL (≈ 8.55 µM).
Consider `CC1(C)S[C@@H]2[C@H](NC(=O)[C@H](N)c3ccccc3)C(=O)N2[C@H]1C(=O)O` [Amp, Ampicillin], for which the Antibiotic susceptibility profile entry in assay [17], in assay [18], in assay [19], in assay [20], in assay [21] and in assay [22] was “R” throughout. The Antibiotic susceptibility profile entry in assay [23] and in assay [24] was “R” throughout.
On to `CNC(C)C1CCC(N)C(OC2C(N)CC(N)C(OC3OCC(C)(O)C(NC)C3O)C2O)O1` (stereo not drawn) [Gen, Gentamicin], for which the Antibiotic susceptibility profile entry in [17] is recorded as “I”; in assay [18], “R”; in [19], “R”; in assay [20], “R”; in assay [21], “R”; in assay [22], “I”. In addition, the Antibiotic susceptibility profile entry in assay [23] and in [24] was “R” each time.
With `CC(C)(O/N=C(\C(=O)N[C@@H]1C(=O)N2C(C(=O)[O-])=C(C[n+]3ccccc3)CS[C@H]12)c1csc(N)n1)C(=O)O` [Caz, Ceftazidime], the Antibiotic susceptibility profile entry in assay [17] was “I”; in assay [18] it was “R”; in [19] it was “R”; in assay [20] it was “R”; in [21] it was “R”; in assay [22], “S”. Further, the Antibiotic susceptibility profile result was “I” in [23] and “R” in [24].
As for RLFRRVKKVAGK-NH2 [AP12], the MIC was > 250 µg/mL in assay [1] (setting [25]); 125 µg/mL in assay [2]; 250 µg/mL in assay [3]; > 250 µg/mL in assay [4]; 250 µg/mL in assay [5]; 125 µg/mL in [6]. Also, the MIC in [7] was 125 µg/mL; in [8], > 250 µg/mL; in assay [9] it was 250 µg/mL; in assay [10], > 250 µg/mL.
For RLFRRVKKVAGKIAKRIW-NH2 [AP18], the MIC in [1] (setting [25]) amounted to 7.81 µg/mL; in [2] it was 3.91 µg/mL; in assay [3] it was 3.91 µg/mL; in assay [4], 7.81 µg/mL; in assay [5], 3.91 µg/mL; in assay [6], 3.91 µg/mL. For the same molecule, the MIC in assay [7] came out at 7.81 µg/mL; in assay [8], 3.91 µg/mL; in assay [9] it was 15.63 µg/mL; in assay [10] it was 7.81 µg/mL.
As for RLFRRVKKVAGKI-NH2 [AP13], the MIC in assay [1] (setting [25]) is > 250 µg/mL; in [2], 62.5 µg/mL; in assay [3], 62.5 µg/mL; in [4], > 250 µg/mL; in assay [5], 125 µg/mL; in assay [6], 62.5 µg/mL. Moreover, the MIC in assay [7] is 125 µg/mL; in [8], > 250 µg/mL; in assay [9], 250 µg/mL; in assay [10], > 250 µg/mL.
